According to paper PMC8549791, “Discovery of SARS-CoV-2 M^pro peptide inhibitors from modelling substrate and ligand binding” (Chemical Science, 2021):
“Also recorded” adds a separate entry of the source. Like-named read-outs stand apart in the source and are kept apart here. Ends that are not written are not given here.

Key:
SARS-CoV-2 M^pro [1] = target: T1, SARS-CoV-2 M^pro (Severe acute respiratory syndrome coronavirus 2, UniProt P0DTD1); conditions: cited from earlier work
SARS-CoV-2 M^pro [2] = target: T1, SARS-CoV-2 M^pro; assay: biochemical; format: biochemical; design: The main protease (M^pro) of SARS-CoV-2; made in house
SARS-CoV-2 M^pro [3] = target: T1, SARS-CoV-2 M^pro; conditions: pH 7.5
SARS-CoV M^pro = conditions: cited from earlier work
SARS-CoV-2 M^pro [4] = target: T1, SARS-CoV-2 M^pro
M^pro dimer = format: binding, SARS-CoV-2; conditions: pH 6.9
SARS-CoV-2 M^pro [5] = target: T1, SARS-CoV-2 M^pro; format: biochemical; design: The main protease (M^pro) of SARS-CoV-2; made in house
SARS-CoV-2 M^pro [6] = target: T1, SARS-CoV-2 M^pro; format: biochemical; design: The main protease (M^pro) of SARS-CoV-2; made in house; conditions: for depletion of s01 in presence of inhibitor: pH 6.9
SARS-CoV-2 M^pro [7] = target: T1, SARS-CoV-2 M^pro; assay: biochemical; design: The main protease (M^pro) of SARS-CoV-2; made in house; conditions: for Hill slope: pH 7.5

Compound	mode of inhibition (in words) (SARS-CoV-2 M^pro [1])	mode of inhibition (SARS-CoV-2 M^pro [2])	turnover / cleavage (in words) (SARS-CoV-2 M^pro [3])	relative catalytic efficiency with SARS-CoV M^pro (in words) (SARS-CoV M^pro)	turnover by SARS-CoV M^pro (in words) (SARS-CoV M^pro)	turnover (fast/medium/slow) (SARS-CoV-2 M^pro [4])	substrate ion depletion after 6 min (SARS-CoV-2 M^pro [4]; pH 6.9) [%]	substrate ion depletion after 12 min (SARS-CoV-2 M^pro [4]; pH 6.9)	complexes with M^pro dimer after 1 min (M^pro dimer)	cleavage products by LCMS (SARS-CoV-2 M^pro [5])	M^pro dimer/s01-cleavage product complexes in presence of inhibitor (SARS-CoV-2 M^pro [6])	depletion of s01 in presence of inhibitor (SARS-CoV-2 M^pro [6]) [%]	IC50 (SARS-CoV-2 M^pro [2]; IC50 at [S] = 2 µM) [µM]	IC50 (SARS-CoV-2 M^pro [2]; IC50 at [S] = 10 µM) [µM]	IC50 (SARS-CoV-2 M^pro [2]; IC50 at [S] = 20 µM) [µM]	IC50 (SARS-CoV-2 M^pro [2]; IC50 at [S] = 40 µM) [µM]	IC50 (SARS-CoV-2 M^pro [7]) [µM]	Hill slope (SARS-CoV-2 M^pro [7])	IC50 ratio R (SARS-CoV-2 M^pro [2])	substrate ion depletion after 1 min (SARS-CoV-2 M^pro [4]; pH 6.9) [%]
O=c1c2ccccc2[se]n1-c1ccccc1 [Ebselen]	reacts multiple times with M^pro; also recorded: complex mode of inhibition	did not support competitive inhibition																		
SGVTFQ↓SAVKR [s02]			hydrolysed less efficiently than s11	highest relative efficiencies	fast turnover	medium	> 70	> 90%	complexes of the M^pro dimer and the cleavage products were observed											
KYLTWQNSQIN-NH2 [p13]		competitive inhibition								not observed	the abundance of these complexes was lower than the abundance of M^pro/p13 complexes	91	2.97 ± 0.21	4.28 ± 0.8	6.77 ± 0.46	18.1 ± 0.96				
LTINWQKYFNT-NH2 [p15]		competitive inhibition								not observed		70	8.26 ± 0.06	12 ± 0.34	18.83 ± 0.18	37.7 ± 2.02	5.31 ± 1.08	1.17 ± 0.16	4.56	
FYPKLQ↓SSQAW [s11]			next preferred substrate for catalysis		medium turnover	fast	> 90		complexes of the M^pro dimer and the cleavage products were observed											> 70
WFTLKQYWQTN-NH2 [p16]		competitive inhibition								not observed		78	4.79 ± 0.08	6.66 ± 0.41	10.4 ± 0.53	23.2 ± 0.42	3.76 ± 0.51	1.19 ± 0.16	4.85	
REPMLQ↓SADAQ [s07]			Slow turnover		slow turnover	slow		below 50%	only M^pro complexes with intact substrates were observed											
KYTFWQYSQFY-NH2 [p12]		competitive inhibition								not observed		95	4.53 ± 0.9	4.99 ± 0.22	7.49 ± 0.04	16.3 ± 0.52	5.36 ± 2.17	1.25 ± 0.06	3.61	
